Source: patent US12564640B2, “Protein-antiviral compound conjugates” (priority 2020, dated 2026)

Tests used:
[1] = test system: influenza A/H1N1/PR8 virus; test: microbe, parasite or virus in culture; assay type: cell-based, H1N1 A/Puerto Rico/08/1934 influenza virus; conditions: for Fold increase over parental antibody: relative to mAb11729 of the same run
[2] = test system: influenza A/H3N2/HK68x31 virus; test: Antiviral efficacy assay, HK68x31; assay type: cell-based
[3] = test system: influenza A/H1N1/Cal09 virus; test: Antiviral efficacy assay, Cal09; assay type: cell-based; conditions: relative to mAb11729

Q: What does the source list for `O=C(O)[C@H]1C2CCC(CC2)[C@@H]1Nc1nc(-c2c[nH]c3ncc(F)cc23)ncc1F` [VX-787, reference compound]?
A: IC50 ([1]; MDCK London cells, Runs 1-4): 9.46 nM; Fold increase over parental antibody [1]: 3.32 fold; IC50 [2]: 7.05 nM

B1: mAb11729: anti-hemagglutinin (anti-HA) monoclonal antibody, HCVR SEQ ID NO: 18, LCVR SEQ ID NO: 26 (antibody, V domains shown)
VH: QVQLVQSGAEVKKSGSSVKVSCKASGGTFSSYAISWVRQAPGQGLEWMGGIIPIFGTPSYAQKFQDRVTITTDESTSTVYMELSSLRSEDTAVYYCARQQPVYQYNMDVWGQGTTVTVSS
VL: DIQMTQSPSSLSASVGDRVTITCRASQGIRNNLGWYQQKPLKAPKRLIYAASSLQSGVPSRFSGSGSGTEFTLTISSLQPEDFATYYCLQYNNYPWTFGQGTKVEIK
Q: B1 was tested. Which “Fold increase over parental antibody” value [1] did it give?
A: 1.00 fold

Q: What about the “Fold increase over parental antibody” value [3] of the same molecule?
A: 1.00 fold
